Assay [1] is described as follows: inhibitors of intracellular T. cruzi replication, confirmation, NIH3T3 host cells, beta-gal luminescence (AID 2044).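 Also: intracellular parasites grown in NIH/3T3 mouse fibroblasts as host cells; luminescent beta-galactosidase reporter signal from transgenic T. cruzi replicating inside host cells; inhibitors lower the luminescence signal.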 In kind it is functional, cell-based.
Assay [2] has as its target Heat shock protein HSP 90-alpha (Homo sapiens, UniProt P07900). In kind it is functional, organism-based.
Assay [3] in a line: cytotoxicity toward NIH3T3 fibroblasts, dose response, counter-screen, cell-based, ATP luminescence, mouse fibroblasts (AID 2010).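 Also: cells exposed to compound for about 90 hours before reading.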 In kind it is functional.
The target of assay [4] is T1, Heat shock factor protein 1 (Mus musculus, UniProt P38532).
T1 sequence (P38532 whole entry): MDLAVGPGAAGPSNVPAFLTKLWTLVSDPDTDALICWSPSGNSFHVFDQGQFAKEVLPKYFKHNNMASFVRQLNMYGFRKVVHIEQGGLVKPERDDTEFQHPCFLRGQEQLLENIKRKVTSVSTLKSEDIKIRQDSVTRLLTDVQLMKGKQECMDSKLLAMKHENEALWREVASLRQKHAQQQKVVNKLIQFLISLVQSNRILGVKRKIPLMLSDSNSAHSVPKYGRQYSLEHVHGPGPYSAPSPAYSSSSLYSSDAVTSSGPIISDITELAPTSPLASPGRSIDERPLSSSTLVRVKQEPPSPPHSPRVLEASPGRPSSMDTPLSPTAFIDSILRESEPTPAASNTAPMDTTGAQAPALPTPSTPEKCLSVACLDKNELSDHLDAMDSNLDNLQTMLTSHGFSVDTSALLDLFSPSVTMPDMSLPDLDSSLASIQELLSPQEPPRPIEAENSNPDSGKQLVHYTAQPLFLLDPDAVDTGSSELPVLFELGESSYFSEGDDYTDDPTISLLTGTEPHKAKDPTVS
Kind of assay: HSF1 potentiators in luciferase reporter cells, confirmation, cell-based, NIH3T3, luminescence, dose retest (AID 435004).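 Also: stress induced by proteasome inhibitor MG132 added 30 min after compound; luciferase reporter driven by HSF1 response element in NIH3T3 cells; actives raise luminescence as potentiators of the MG132 stress response.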 It counts as functional. A general note: In a reporter assay the amount or activity of a reporter protein is the signal.

Assay [5] deals with T2, Apoptotic protease-activating factor 1 (Homo sapiens, UniProt O14727).
T2 sequence (O14727 whole entry): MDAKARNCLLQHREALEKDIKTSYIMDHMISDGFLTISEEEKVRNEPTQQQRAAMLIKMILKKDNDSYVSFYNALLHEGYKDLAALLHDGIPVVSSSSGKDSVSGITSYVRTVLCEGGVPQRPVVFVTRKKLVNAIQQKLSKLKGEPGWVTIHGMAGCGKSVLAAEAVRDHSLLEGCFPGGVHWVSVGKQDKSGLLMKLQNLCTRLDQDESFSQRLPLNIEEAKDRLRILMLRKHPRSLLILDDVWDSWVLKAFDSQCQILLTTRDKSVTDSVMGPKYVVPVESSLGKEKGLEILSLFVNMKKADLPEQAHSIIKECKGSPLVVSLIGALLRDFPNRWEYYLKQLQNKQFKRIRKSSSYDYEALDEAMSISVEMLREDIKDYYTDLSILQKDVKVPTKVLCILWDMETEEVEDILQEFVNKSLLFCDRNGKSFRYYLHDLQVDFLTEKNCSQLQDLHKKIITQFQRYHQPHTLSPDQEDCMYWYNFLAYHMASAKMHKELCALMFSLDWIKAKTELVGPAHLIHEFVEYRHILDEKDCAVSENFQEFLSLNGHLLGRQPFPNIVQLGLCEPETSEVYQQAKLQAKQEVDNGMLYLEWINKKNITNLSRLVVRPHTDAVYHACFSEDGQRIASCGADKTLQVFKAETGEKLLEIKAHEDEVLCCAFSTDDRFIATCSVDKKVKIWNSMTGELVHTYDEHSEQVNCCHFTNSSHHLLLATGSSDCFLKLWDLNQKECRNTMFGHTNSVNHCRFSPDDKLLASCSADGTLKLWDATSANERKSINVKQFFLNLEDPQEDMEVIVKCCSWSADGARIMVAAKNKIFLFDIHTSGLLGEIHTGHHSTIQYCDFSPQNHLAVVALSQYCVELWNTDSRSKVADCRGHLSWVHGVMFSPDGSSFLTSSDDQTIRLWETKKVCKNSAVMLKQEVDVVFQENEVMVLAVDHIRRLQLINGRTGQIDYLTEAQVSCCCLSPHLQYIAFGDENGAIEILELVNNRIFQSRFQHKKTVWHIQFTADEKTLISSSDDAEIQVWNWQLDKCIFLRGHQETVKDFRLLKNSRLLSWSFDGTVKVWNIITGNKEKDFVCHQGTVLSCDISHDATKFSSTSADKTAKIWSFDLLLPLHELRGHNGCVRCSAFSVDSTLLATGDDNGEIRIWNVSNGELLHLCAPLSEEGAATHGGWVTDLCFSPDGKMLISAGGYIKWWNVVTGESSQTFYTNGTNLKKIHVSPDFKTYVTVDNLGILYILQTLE
In kind it is functional.

The nature of the next assay: cells. In kind it is functional.
Assay [6] has as its target Lysine-specific demethylase 4C (Homo sapiens, UniProt Q9H3R0). As to the kind of experiment: GASC-1 (JMJD2C) histone demethylase inhibitors, dose response, biochemical, DELFIA europium, cherry-picked samples (AID 488835). It counts as functional.
The target of assay [7] is Glucose-6-phosphate 1-dehydrogenase (Homo sapiens, UniProt P11413). Kind of assay: human G6PD enzyme inhibitors, dose response, selectivity assay for P. falciparum G6PD inhibitor project, biochemical, fluorescence (AID 504792). In kind it is functional.
Sequence of Glucose-6-phosphate 1-dehydrogenase (P11413 whole entry): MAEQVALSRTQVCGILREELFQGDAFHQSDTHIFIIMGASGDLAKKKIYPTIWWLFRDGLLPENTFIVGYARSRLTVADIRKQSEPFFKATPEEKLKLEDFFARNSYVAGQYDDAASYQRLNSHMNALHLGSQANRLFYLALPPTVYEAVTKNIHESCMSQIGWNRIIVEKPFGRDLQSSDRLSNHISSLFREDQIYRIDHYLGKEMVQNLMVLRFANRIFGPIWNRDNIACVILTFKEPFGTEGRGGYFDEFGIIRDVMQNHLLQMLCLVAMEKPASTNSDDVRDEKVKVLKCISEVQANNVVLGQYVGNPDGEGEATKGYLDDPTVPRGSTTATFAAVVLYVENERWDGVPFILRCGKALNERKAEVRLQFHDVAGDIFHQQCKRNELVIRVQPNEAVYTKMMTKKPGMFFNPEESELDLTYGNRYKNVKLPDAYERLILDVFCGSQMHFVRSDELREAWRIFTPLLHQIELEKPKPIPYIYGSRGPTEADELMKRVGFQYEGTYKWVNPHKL

Molecules are shown by their SMILES. Activity calls are given as the source filed them.

Sequence of Lysine-specific demethylase 4C (Q9H3R0 whole entry): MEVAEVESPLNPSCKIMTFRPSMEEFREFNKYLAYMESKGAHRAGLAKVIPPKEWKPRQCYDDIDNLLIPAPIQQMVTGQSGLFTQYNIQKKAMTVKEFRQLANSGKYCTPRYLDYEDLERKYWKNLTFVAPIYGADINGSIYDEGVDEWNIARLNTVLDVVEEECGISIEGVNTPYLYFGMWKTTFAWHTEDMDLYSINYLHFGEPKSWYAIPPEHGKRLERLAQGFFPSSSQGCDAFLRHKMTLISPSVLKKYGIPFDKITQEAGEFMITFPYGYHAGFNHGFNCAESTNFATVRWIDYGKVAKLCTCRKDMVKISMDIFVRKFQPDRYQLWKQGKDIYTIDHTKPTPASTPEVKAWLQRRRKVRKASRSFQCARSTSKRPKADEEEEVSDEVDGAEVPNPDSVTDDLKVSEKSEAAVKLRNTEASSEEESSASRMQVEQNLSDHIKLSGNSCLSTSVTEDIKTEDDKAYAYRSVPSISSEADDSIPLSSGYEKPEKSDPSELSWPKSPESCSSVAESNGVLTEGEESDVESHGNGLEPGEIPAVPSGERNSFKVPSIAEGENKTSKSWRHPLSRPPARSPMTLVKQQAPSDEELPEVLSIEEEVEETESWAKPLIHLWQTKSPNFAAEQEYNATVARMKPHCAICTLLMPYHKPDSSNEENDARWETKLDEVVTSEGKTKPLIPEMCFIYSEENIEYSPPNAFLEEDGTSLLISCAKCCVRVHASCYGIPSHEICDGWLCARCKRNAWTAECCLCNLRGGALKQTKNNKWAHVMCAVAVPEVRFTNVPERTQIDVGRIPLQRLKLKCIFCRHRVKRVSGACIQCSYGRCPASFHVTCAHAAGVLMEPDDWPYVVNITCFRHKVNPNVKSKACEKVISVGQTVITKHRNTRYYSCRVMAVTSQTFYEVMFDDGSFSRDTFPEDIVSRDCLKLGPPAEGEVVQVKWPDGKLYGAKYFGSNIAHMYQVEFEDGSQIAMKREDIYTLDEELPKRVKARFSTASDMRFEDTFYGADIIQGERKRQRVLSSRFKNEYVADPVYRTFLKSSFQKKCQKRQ

One may read the EC50 as the concentration at which the effect is half-maximal. What is called AC50 is the concentration giving half of the maximal activity seen. The IC50 is the concentration that inhibits the measured activity by half. As for `Clc1ccc(/N=c2\ssnc2Cl)nc1`, the EC50 in assay [1] was 1.45 µM (active); in assay [3] it was > 60 µM (not active); in assay [4], 16 µM (active). Also, the AC50 in assay [2] was 1.73 µM (active); in assay [6], 0.669 µM (active). Besides, the IC50 is 14.3 µM (active) in assay [5], 32.9 µM (active) in the assay “cells” and > 80 µM (inactive) in assay [7].
